# Test results published in patent US20100311714A1, “1H-IMIDAZO[4,5-c]QUINOLINONE COMPOUNDS” (priority 2009, published 2010).
# Where two headings read alike, the source gives them in different places.
# Tests used:
# PI3K beta = biological target: T1, PI3K beta (Homo sapiens, UniProt P42338); test: PI3K beta kinase assay (Kinase-Glo luminescence); assay type: biochemical
# T1 construct: for the full-length p110-b subunit are generated and fused by overlapping PCR; His tag (C); made in house; host or cells: baculovirus BV949; Tn5 (Trichoplusia ni) or TiniPro insect cells
# In short: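 Kinase-Glo luminescence read out ATP left after a 60-min room-temperature reaction, started with ATP (1 μM final) on 25 nM His-tagged p85 iSH2–p110β (BV949) plus 10 μg/mL PI substrate in pH 7.5 Tris buffer. Percent inhibition at eight concentrations was fitted to a four-parameter logistic model for IC50.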
# [1] = test system: S6 Ribosomal Protein phosphorylation Ser235/236 in TSC1 null mouse embryo fibroblast (MEF) cells; test: Reverse protein array, S6 Ribosomal Protein phosphorylation in TSC1 null MEF cells; assay type: cell-based; settings: 1 h, TSC1-/- MEFs, 60 minutes
# Protocol: TSC1−/− MEFs cells (provided by D. Kwiatkowski), were cultivated in Dulbecco's modified Eagle's medium (DMEM high Glucose, GIBCO, cat. No. 41956-039) supplemented with 10% heat inactivated fetal bovine calf serum (Amimed, cat. No. 2-01F16-I), 1% L-Glutamine (Invitrogen, cat. No. 25030-02), 1% penicillin-streptomycin (GIBCO, cat. No. 15140-114) at 37° C. in a 5% CO2 and 95% relative humidity atmosphere incubator.
# The TSC1−/− cells were trypsinized and counted with a CASY TT cell counter (Schärfe System GmbH, Reutlingen Germany). The cells were diluted in fresh DMEM complete medium and 0.75×10^4 cells/150 μl/well seeded in 96-well TPP-tissue culture plates (TPP, cat. No. 92096). The plates were incubated at 37° C. and 5% CO2 under humidified condition for at least 20 h. Working solutions were prepared freshly as serial 8 step dilutions (vol/vol) in DMSO on the day of the experiment. The working solutions were further diluted 1/5000 in cell culture medium to get final compound concentrations of […]. The final DMSO concentration was kept constant at 0.02%. cell culture medium containing 0.02% DMSO was used as vehicle treatment control. Post incubation, the cells were treated with the serial compound dilution. 50 μl of the compound medium mixture was added to the wells containing cells and 150 μl DMEM medium and incubated for 60 minutes (37° C., 5% CO2). After 60 minutes of incubation, the medium mixture was quickly removed by aspiration. For cell lysis, a mixture of 10% CLB1 CeLyA lysis buffer (Zeptosens, cat. No. 9000), 90% CSBL1 CeLyA spotting buffer (Zeptosens, cat. No. 9020) was freshly prepared and supplemented with 1% Octyl β-D-glucopyranoside (SIGMA, cat. No. 08001-5G) and 1 mM Na-Orthovanadate (Sigma, cat No. S-6508). 50 μl of the described lysis buffer mix was added to each well, followed by 10 minutes of incubation on ice. After an additional freeze-thaw cycle, another 50 μl of the lysis buffer mix without Octyl β-D-glucopyranoside was added to the wells, and 90 μl of the cell lysate was transferred to a 96-well V-bottom plate (Fisher Scientific, cat. No. 6067Y), followed by a centrifugation step (5 min, 1500 rpm at 19° C. in an Eppendorf 5810R centrifuge) to remove the unlysed cell debris.
# The spotting of the chips follows the previous described method.
# The signal detection and the data analysis follows the previous described method using the pS6 ribosomal protein Ser235/236 (CST, cat. No. #2211) as a primary antibody.
# T1 sequence (P42338 with tags, fused parts or gaps limits assumed): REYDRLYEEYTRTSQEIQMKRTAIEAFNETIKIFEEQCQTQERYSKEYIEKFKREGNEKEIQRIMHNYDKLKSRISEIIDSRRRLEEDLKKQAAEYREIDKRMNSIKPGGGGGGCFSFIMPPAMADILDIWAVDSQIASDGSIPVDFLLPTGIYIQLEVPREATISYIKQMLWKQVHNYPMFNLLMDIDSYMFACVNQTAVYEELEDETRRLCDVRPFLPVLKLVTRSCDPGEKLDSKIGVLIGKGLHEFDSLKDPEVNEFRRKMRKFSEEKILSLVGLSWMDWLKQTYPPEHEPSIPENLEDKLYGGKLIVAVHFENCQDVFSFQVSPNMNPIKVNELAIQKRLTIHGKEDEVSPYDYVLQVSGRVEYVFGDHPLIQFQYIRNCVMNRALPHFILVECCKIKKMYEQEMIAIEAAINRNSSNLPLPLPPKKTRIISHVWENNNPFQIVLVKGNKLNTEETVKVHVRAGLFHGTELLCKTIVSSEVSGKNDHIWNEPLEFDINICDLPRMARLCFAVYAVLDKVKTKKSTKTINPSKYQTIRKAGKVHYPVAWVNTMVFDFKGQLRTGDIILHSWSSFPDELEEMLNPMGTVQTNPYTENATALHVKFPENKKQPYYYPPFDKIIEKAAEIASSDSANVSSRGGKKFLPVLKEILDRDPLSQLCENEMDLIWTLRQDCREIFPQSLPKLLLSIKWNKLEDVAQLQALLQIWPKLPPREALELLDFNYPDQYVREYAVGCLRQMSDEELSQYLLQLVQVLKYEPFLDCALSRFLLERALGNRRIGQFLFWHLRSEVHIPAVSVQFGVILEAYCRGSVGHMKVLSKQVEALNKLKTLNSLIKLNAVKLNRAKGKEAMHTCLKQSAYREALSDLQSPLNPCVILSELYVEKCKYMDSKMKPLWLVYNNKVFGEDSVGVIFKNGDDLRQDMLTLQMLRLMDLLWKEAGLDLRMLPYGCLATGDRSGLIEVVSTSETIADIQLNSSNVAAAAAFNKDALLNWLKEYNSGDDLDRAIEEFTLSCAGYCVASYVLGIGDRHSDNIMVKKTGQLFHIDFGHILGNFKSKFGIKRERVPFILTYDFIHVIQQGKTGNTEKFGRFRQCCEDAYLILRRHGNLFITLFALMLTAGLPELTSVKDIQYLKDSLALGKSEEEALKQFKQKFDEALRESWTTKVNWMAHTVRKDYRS
IC50 (PI3K beta; read-out: PI3Kbeta/IC50) [nM],IC50 (PI3K beta; read-out: EPK_PI3Kbeta/IC50) [nM],SMILES,IC50 ([1]; read-out: p-S6) [nM],IC50 ([1]; read-out: p-S6 IC50) [nM]
132,–,"COc1ccc(-c2ccc3ncc4c(c3c2)n(-c2cccnc2C)c(=O)n4C)cn1 [Example 2.12, 8-(6-Methoxy-pyridin-3-yl)-3-methyl-1-(2-methyl-pyridin-3-yl)-1,3-dihydro-imidazo[4,5-c]quinolin-2-one]",18,–
–,69,"Cc1nc(C(F)(F)F)ccc1-n1c(=O)n(C)c2cnc3ccc(-c4cncc(C(C)(C)O)c4)cc3c21 [Example 33.1, 8-[5-(1-Hydroxy-1-methyl-ethyl)-pyridin-3-yl]-3-methyl-1-(2-methyl-6-trifluoromethyl-pyridin-3-yl)-1,3-dihydro-imidazo[4,5-c]quinolin-2-one]",–,2
267,–,"CCOc1ccc(-c2ccc3ncc4c(c3c2)n(-c2ccc(N3CCNCC3)nc2OC)c(=O)n4C)cn1 [Example 9.1, 8-(6-Ethoxy-pyridin-3-yl)-1-(2-methoxy-6-piperazin-1-yl-pyridin-3-yl)-3-methyl-1,3-dihydro-imidazo[4,5-c]quinolin-2-one]",13.5,–
7,–,"Cn1c(=O)n(-c2cccnc2F)c2c3cc(-c4cnc(N)c(C(F)(F)F)c4)ccc3ncc21 [Example 6.2, 8-(6-Amino-5-trifluoromethyl-pyridin-3-yl)-1-(2-fluoro-pyridin-3-yl)-3-methyl-1,3-dihydro-imidazo[4,5-c]quinolin-2-one]",1.47,–
706,–,"Cc1ncccc1-n1c(=O)n(C)c2cnc3ccc(-c4ccc(CO)nc4)cc3c21 [Example 2.6, 8-(6-Hydroxymethyl-pyridin-3-yl)-3-methyl-1-(2-methyl-pyridin-3-yl)-1,3-dihydro-imidazo[4,5-c]quinolin-2-one]",66.1,–
749,–,"CCOc1ncc(-c2ccc3ncc4c(c3c2)n(-c2cccnc2C)c(=O)n4C)cn1 [Example 2.5, 8-(2-Ethoxy-pyrimidin-5-yl)-3-methyl-1-(2-methyl-pyridin-3-yl)-1,3-dihydro-imidazo[4,5-c]quinolin-2-one]",237,–
226,–,"CNc1ccc(-c2ccc3ncc4c(c3c2)n(-c2cccnc2C)c(=O)n4C)cn1 [Example 2.13, 3-Methyl-8-(6-methylamino-pyridin-3-yl)-1-(2-methyl-pyridin-3-yl)-1,3-dihydro-imidazo[4,5-c]quinolin-2-one]",2.78,–
–,192,"COc1ncc(-c2ccc3ncc4c(c3c2)n(-c2ccc(N3CC[C@H](O)C3)nc2C)c(=O)n4C)c(OC)n1 [Example 32.3, 8-(2,4-Dimethoxy-pyrimidin-5-yl)-1-[6-((S)-3-hydroxy-pyrrolidin-1-yl)-2-methyl-pyridin-3-yl]-3-methyl-1,3-dihydro-imidazo[4,5-c]quinolin-2-one]",–,4
–,124,"CNc1ncc(-c2ccc3ncc4c(c3c2)n(-c2ccc(N3CCC(O)C3)nc2C)c(=O)n4C)cn1 (centres unmarked) [Example 27.2, 1-[6-(3-Hydroxy-pyrrolidin-1-yl)-2-methyl-pyridin-3-yl]-3-methyl-8-(2-methylamino-pyrimidin-5-yl)-1,3-dihydro-imidazo[4,5-c]quinolin-2-one]",–,2
–,59,"COc1ncc(-c2ccc3ncc4c(c3c2)n(-c2ccc(N3CC(O)C3)nc2C)c(=O)n4C)c(OC)n1 [Example 29.6, 8-(2,4-Dimethoxy-pyrimidin-5-yl)-1-[6-(3-hydroxy-azetidin-1-yl)-2-methyl-pyridin-3-yl]-3-methyl-1,3-dihydro-imidazo[4,5-c]quinolin-2-one]",–,5
601,–,"COc1ccc(-c2ccc3ncc4c(c3c2)n(-c2cnccc2C)c(=O)n4C)cn1 [Example 4.3, 8-(6-Methoxy-pyridin-3-yl)-3-methyl-1-(4-methyl-pyridin-3-yl)-1,3-dihydro-imidazo[4,5-c]quinolin-2-one]",220,–
36,–,"COc1nc(N2CCNCC2)ccc1-n1c(=O)n(C)c2cnc3ccc(-c4cnc(N)c(C(F)(F)F)c4)cc3c21 [Example 9.2, 8-(6-Amino-5-trifluoromethyl-pyridin-3-yl)-1-(2-methoxy-6-piperazin-1-yl-pyridin-3-yl)-3-methyl-1,3-dihydro-imidazo[4,5-c]quinolin-2-one]",3.35,–
–,1240,"COc1cc(-c2ccc3ncc4c(c3c2)n(-c2cccnc2C)c(=O)n4C)cnc1C(OC)OC [Example 2.27, 8-(6-Dimethoxymethyl-5-methoxy-pyridin-3-yl)-3-methyl-1-(2-methyl-pyridin-3-yl)-1,3-dihydro-imidazo[4,5-c]quinolin-2-one]",–,54
–,67,"CCNc1cc(-c2ccc3ncc4c(c3c2)n(-c2cccnc2C)c(=O)n4C)cnc1CO [Example 2.31, 8-(5-Ethylamino-6-hydroxymethyl-pyridin-3-yl)-3-methyl-1-(2-methyl-pyridin-3-yl)-1,3-dihydro-imidazo[4,5-c]quinolin-2-one]",–,21
–,37,"CNc1ncc(-c2ccc3ncc4c(c3c2)n(-c2ccc(N3CC[C@H](O)C3)nc2C)c(=O)n4C)cc1C(F)(F)F [Example 32.5, 1-[6-((S)-3-Hydroxy-pyrrolidin-1-yl)-2-methyl-pyridin-3-yl]-3-methyl-8-(6-methylamino-5-trifluoromethyl-pyridin-3-yl)-1,3-dihydro-imidazo[4,5-c]quinolin-2-one]",–,1
–,< 3,"Cc1nc(N2CCCC2)ccc1-n1c(=O)n(C)c2cnc3ccc(-c4cncc(C(C)(C)O)c4)cc3c21 [Example 25.3, 8-[5-(1-Hydroxy-1-methyl-ethyl)-pyridin-3-yl]-3-methyl-1-(2-methyl-6-pyrrolidin-1-yl-pyridin-3-yl)-1,3-dihydro-imidazo[4,5-c]quinolin-2-one]",–,< 0.457
–,–,"CCOc1ccc(-c2ccc3ncc4c(c3c2)n(-c2cnccc2C)c(=O)n4C)cn1 [Example 4.2, 8-(6-Ethoxy-pyridin-3-yl)-3-methyl-1-(4-methyl-pyridin-3-yl)-1,3-dihydro-imidazo[4,5-c]quinolin-2-one]",460,–
360,–,"Cc1ncccc1-n1c(=O)n(C)c2cnc3ccc(-c4cnc(N(C)C)nc4)cc3c21 [Example 2.15, 8-(2-Dimethylamino-pyrimidin-5-yl)-3-methyl-1-(2-methyl-pyridin-3-yl)-1,3-dihydro-imidazo[4,5-c]quinolin-2-one]",68.2,–
–,61,"CNc1cc(-c2ccc3ncc4c(c3c2)n(-c2cccnc2C)c(=O)n4C)cnc1C [Example 2.32, 3-Methyl-8-(6-methyl-5-methylamino-pyridin-3-yl)-1-(2-methyl-pyridin-3-yl)-1,3-dihydro-imidazo[4,5-c]quinolin-2-one]",–,2
–,48,"COC1CCN(c2ccc(-n3c(=O)n(C)c4cnc5ccc(-c6cncc(C(C)(C)O)c6)cc5c43)c(C)n2)C1 (centres unmarked) [Example 28.1, 8-[5-(1-Hydroxy-1-methyl-ethyl)-pyridin-3-yl]-1-[6-(3-methoxy-pyrrolidin-1-yl)-2-methyl-pyridin-3-yl]-3-methyl-1,3-dihydro-imidazo[4,5-c]quinolin-2-one]",–,1
–,–,"Cc1cccnc1-n1c(=O)n(C)c2cnc3ccc(-c4ccc(C(N)=O)cc4)cc3c21 [Example 3.3, 4-[3-Methyl-1-(3-methyl-pyridin-2-yl)-2-oxo-2,3-dihydro-1H-imidazo[4,5-c]quinolin-8-yl]-benzamide]",297,–
–,–,"Cc1ncccc1-n1c(=O)n(C)c2cnc3ccc(-c4ccc(OCCCN(C)C)nc4)cc3c21 [Example 2.10, 8-[6-(3-Dimethylamino-propoxy)-pyridin-3-yl]-3-methyl-1-(2-methyl-pyridin-3-yl)-1,3-dihydro-imidazo[4,5-c]quinolin-2-one]",159,–
